Measurements published in BindingDB's records for patent US8604046 (Sanofi, 2013).

Biological target: Histamine H3 receptor (Macaca mulatta, UniProt G7N499)
Assay: Radioligand Binding Assay
Description: The compounds of this invention have been demonstrated to displace [3H]- methylhistamine radioligand binding to mammalian cell membranes expressing rhesus (Macacca Mulatta) H3 receptor. Additionally, the compounds of this invention have been demonstrated by GTPγS radioligand binding assay to inhibit rhesus H3 constitutive functional activity in cell membranes.

Sequence of Histamine H3 receptor (G7N499 whole entry): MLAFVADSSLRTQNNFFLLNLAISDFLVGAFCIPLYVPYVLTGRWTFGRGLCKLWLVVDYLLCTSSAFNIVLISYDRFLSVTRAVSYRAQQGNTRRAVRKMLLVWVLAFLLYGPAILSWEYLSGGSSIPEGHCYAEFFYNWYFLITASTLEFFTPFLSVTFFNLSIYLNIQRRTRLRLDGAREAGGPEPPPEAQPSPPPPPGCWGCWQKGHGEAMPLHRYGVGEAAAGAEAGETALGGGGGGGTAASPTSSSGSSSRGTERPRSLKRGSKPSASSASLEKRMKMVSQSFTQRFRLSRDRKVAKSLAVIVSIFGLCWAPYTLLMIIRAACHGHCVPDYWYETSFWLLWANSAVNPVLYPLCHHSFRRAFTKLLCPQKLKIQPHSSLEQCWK

C[C@H]1CCCN1C1CCN(c2ccc(N3CCC4(CCN(C(=O)OC(C)(C)C)CC4)C3=O)c(F)c2)CC1 [US8604046, 79] was tested, and the Ki was 0.3 nM.
